Data as given in PMC11356900, “Synthesis, Structural Properties and Biological Activities of Novel Hydrazones of 2-, 3-, 4-Iodobenzoic Acid” (Molecules, 2024).
≈ marks a conversion by molar mass, not a printed value.

What was measured:
MTT cytotoxicity assay = type: cell-based, mouse; conditions: mouse, L929 fibroblast cells; L929, 48 h culture, dose of 25 μM; read-out: increased viability
Description: Among all the newly synthesized compounds, four compounds designated as: 14, 20, 21 and 27 were selected for further testing of their cytotoxic properties at the doses of 10, 25, 50, 75 and 100 µM. The cytotoxic properties of the above compounds were tested on the cancer cell lines, i.e., A549 (ECACC 86012804) (non-small-cell lung cancer), T47D (ECACC 85102201) (breast cancer), HeLa (ATCC® CCL-2™) (cervical cancer) and normal line L929 (NCTC clone 929, ATCC® CCL-1™) (mouse fibroblasts) using the MTT test for 24- and 48 h cultures.
A549 (ECACC 86012804) (non-small-cell lung cancer) and T47D (ECACC 85102201) (breast cancer) were obtained from ECACC and propagated in Dulbecco’s Minimal Essential Medium, supplemented with 2 mM of glutamine, antibiotics ([…] streptomycin, 1% of 100 U/L penicillin) and 10% Fetal Bovine Serum. HeLa (ATCC® CCL-2™) (cervical cancer) and L929 (NCTC clone 929, ATCC® CCL-1™) (mouse fibroblasts) cell lines were obtained from ATCC and propagated in the Eagle Minimal Essential Medium supplemented with antibiotics ([…] streptomycin, 1% of 100 U/L penicillin) and with 10% and 5% FBS, respectively. The cell line was routinely grown in 75 cm^2 tissue culture flasks and kept in an incubator (humidified atmosphere of 5% CO2 at 37 °C). All examined cell lines were tested against mycoplasma contamination with microbiological assays.
The cell viability of tested compounds (14, 20, 21 and 27) was assessed by the MTT assay. In brief, the exponentially growing cells were plated in 100 μL/well in 96-well plates. After 24 h culturing, the cells were treated with different concentrations of compounds (range 10–100 μM). After 24 and 48 h of incubation, 10 μL of 5 mg/mL MTT was added to each well and the plates were incubated at 37 °C for additional 4 h. The medium was subsequently removed, the purple-colored precipitates of formazan were dissolved in 100 μL of DMSO. The color absorbance was recorded at 570 nm using a BioTek model EPOCH ELISA plate reader. All experiments were performed in triplicate. The absorbance values were in the range of linearity of the Lambert–Beer law.

Gram-negative bacteria = test: Broth microdilution, summary over reference Gram-negative bacteria; type: cell-based; conditions: for MIC: range over the reference Gram-negative bacteria; for antibacterial activity in words: reference Gram-negative bacteria
Excerpt: Procedures of in vitro antimicrobial assays are described in Supplementary Materials.
2. Microbiology – in vitro antimicrobial activity assays […]
using the broth microdilution method according to the European Committee on Antimicrobial Susceptibility Testing (EUCAST) and Clinical and Laboratory Standards Institute guidelines against a panel of reference and clinical or saprophytic strains of mi croorganisms, including the Gram-positive bacteria: Staphylococcus aureus ATCC 43300 (Methi-cillin Resistant S. aureus – MRSA), Staphylococcus aureus ATCC 29213 (Methicillin Susceptible S. aureus – MSSA), Staph-ylococcus epidermidis ATCC 12228, Micrococcus luteus ATCC 10240, Bacillus subtilis ATCC 6633 and Bacillus cereus ATCC 10876), Gram-negative bacteria: Bordetella bronchiseptica ATCC 4617, Escherichia coli ATCC 25922, Klebsiella pneumoniae ATCC 13883, Proteus mirabilis ATCC 12453, Salmonella typhimurium ATCC 14028 and Pseudomonas aeruginosa ATCC 9027, and fungi belonging to yeasts: Candida albicans ATCC 10231, Candida albicans ATCC 2091, Candida parapsilosis ATCC 22019, Candida glabrata ATCC 90030 and Candida krusei ATCC 14243. The microorganisms belonging to ATCC originated from American Type Culture Collection, routinely used for the evaluation of antimicrobials. All the used microbial cultures were first subcultured on nutrient agar or Sabouraud agar at 35°C for 18-24 h or 30°C for 24-48 h for bacteria […]
The surface of Mueller-Hinton agar (for bacteria) and RPMI 1640 with MOPS (for fungi) were inoculated with the suspensions of bacterial or fungal species. Microbial suspensions were prepared in sterile saline with an optical density of McFarland standard scale 0.5. The samples containing the compounds were dissolved in dimethyl sulfoxide (DMSO).
Furthermore, the bacterial and fungal suspensions put onto the Petri dishes with solid media containing 2 mg/mL of the tested compounds followed were incubated at 37°C for 24h and 30°C for 48h for bacteria and fungi, respectively. […]
Subsequently, MIC (Minimal Inhibitory Concentration) of the compounds was examined by the microdilution broth method, using their two-fold dilutions in Mueller-Hinton broth (for bacteria) and RPMI 1640 broth with MOPS (for fungi) prepared in the 96-well polystyrene plates. […] After incubation, the MIC was assessed spectrophotometrically as the lowest concentration of the […]
Appropriate DMSO, growth and sterile controls were carried out. […] The MBC/MFC was determined by removing the culture used for the MIC determination from each well and spotted onto the appro-priate agar medium. […] The lowest com-pounds concentration with no visible growth observed was assessed as a bactericidal/fungicidal concentration. […]

O=C(N/N=C/c1cc(I)cc(I)c1O)c1ccccc1I [Compound 14, N-[(3,5-diiodo-2-hydroxyphenyl)methylidene]-2-iodobenzohydrazide]
viability at 48 h, 25 µM (MTT cytotoxicity assay): > 100%

O=C(N/N=C/c1cc(Cl)cc(I)c1O)c1cccc(I)c1 [Compound 20, N-[(5-chloro-2-hydroxy-3-iodophenyl)methylidene]-3-iodobenzohydrazide]
MIC (Gram-negative bacteria): 500 to 1000 µg/mL (≈ 950 to 1900 µM)
antibacterial activity in words (Gram-negative bacteria): mild or moderate

O=C(N/N=C/c1cc(Cl)cc(I)c1O)c1ccc(I)cc1 [Compound 27, N-[(5-chloro-2-hydroxy-3-iodophenyl)methylidene]-4-iodobenzohydrazide]
MIC (Gram-negative bacteria): 500 µg/mL (≈ 950 µM)
antibacterial activity in words (Gram-negative bacteria): moderate (moderate bioactivity with MIC from 126 to 500 µg/mL)
